Earlier results as cited in patent US20260248735A1, “A METHOD FOR PREPARING MICROPARTICLES FOR DRUG DELIVERY” (Danmarks Tekniske Universitet, priority 2023, published 2026).

Conditions: as characterised by BCS class

solubility: high
Substance: calcitonin
